According to patent US20250161312A1, “A METHOD FOR THE TREATMENT OF CHEMOTHERAPEUTIC DRUG-INDUCED NEPHROTOXICITY” (INSTITUT NATIONAL DE LA SANTÉ ET DE LA RECHERCHE MÉDICALE, priority 2022, published 2025):

Experiments:
C57BL6/J mice = test: Acute cisplatin-induced kidney injury model; assay type: in vivo
Experimental: Animal procedures were performed in 8 to 10 weeks old male C57B16/J mice (Janvier Labs). Mice were fed a laboratory standard diet with water and food ad libitum and were kept under constant environmental conditions with a 12-hour light-dark cycle. […] Three days after this single injection, animals were sacrificed by cervical dislocation (FIG. 1A).
Prior sacrifice by cervical dislocation, retro-orbital blood samples were collected in heparinized tubes and centrifuged for 10 min at 2000 rpm at room temperature. Renal function was assessed by Blood urea nitrogen (BUN) measurement using a AU480 Chemistry Analyzer (Beckman Coulter). At the time of sacrifice, kidneys or LLC1 tumors were harvested and stored in either “RNA later” solution (Thermo Fisher), 4% neutral buffered formalin or snap-frozen in liquid nitrogen.
Formalin-fixed and paraffin-embedded sections (3 μm thick) were stained with Hematoxylin and Eosin (Sigma Aldrich) or Periodic Acid-Schiff (Sigma-Aldrich). Slices were scored by a nephropathologist in a blinded manner. A kidney injury score grading scale from 0 to 5 was used to assess the severity of the injury as follow: 0=no lesions, 1=minimal injury characterized by occurrence of necrosis and debris; 2=mild injury with single cell necrosis, pyknotic cells, and apoptosis; 3=moderate injury characterized by tubular distension, vacuolation, and some cellular debris, 4=severe injury with occasional hyaline casts observed, patchy epithelial necrosis in all segments, loss of epithelial lining; and 5=very severe injury characterized by extensive tubular epithelial necrosis in all segments, loss of epithelial layer from many tubules widespread intraluminal cellular debris, and frequent hyaline casts particularly prominent in the medullary region (67).
Total RNA from kidney samples was extracted with phenol/chloroform and subsequently precipitated in isopropanol as described previously (71). Total RNA from cultured renal cells was extracted using RNeasy Mini kit (Qiagen) following manufacturer's recommendations.
Reverse transcription was performed on 1 μg of RNA using high-capacity cDNA reverse transcription kit (Thermo Fisher), according the manufacturer's recommendation. Real time PCR was performed on a StepOne device using Taqman Gene Expression Master Mix (Thermo Fisher), following manufacturer's recommendations. Expression levels of the following genes were evaluated using comparative CT method (2-deltaCT): Neutrophil Gelatinase Associated Lipocalin (NGAL, Assay IDs Hs00194353_ml and Mm01324470_m1), Kidney Injury Molecule-1 (KIM-1, Assay ID Hs00273334_ml and Mm00506686_m1), Tumor Necrosis Factor alpha (TNFα, Assay ID Hs00174128_m1 and Mm00443258_m1), Interleukin-6 (I16, Assay ID Hs00174131_m1 and Mm00446190_m1), Adora2A Receptor (A2AR, Assay ID Hs00169123_m1 and Mm00802075_m1), Bcl2 associated X (Bax, Assay ID Hs00180269_m1 and Mm00432051_m1), B cell lymphoma 2 (Bcl2, Assay ID Hs00608023_m1 and Mm00477631_m1), Copper transporter receptor 1 (CTR1, Assay ID Hs00741015_m1 and Mm00612987_m1), Organic cation transporter 2 (OCT2, Assay ID Hs00533907 m1 and Mm00457295_m1), ATPase 7A (ATP7A, Assay ID Hs00163707_m1 and Mm00437663_m1), ATPase 7B (ATP7B, Assay ID Hs00163739_m1 and Mm00599675_m1), Multidrug and toxin extrusion ½ (MATE1/2, Assay ID Hs00979028 m1/Hs00945652_m1 and Assay ID Mm00840361_m1/Mm02601002_m1), ATP Binding Cassette Subfamily C Member 2 (Abcc2, Assay ID Hs00166123_m1 and Mm00496899_m1) instructions. Transcript levels of PPIA (human Hs99999904_mland mouse sample Mm02342430_m1) were used as endogenous control.

tumor cell transcriptome = test: Whole transcriptome analysis of LLC1 tumors; assay type: in vivo, mice
Experimental: RNA-seq libraries (n=5-6/group) were generated from 500 ng of total RNA using Illumina® TruSeq® Stranded mRNA Library Prep Kit v2. Briefly, following purification with poly-T oligo attached magnetic beads, the mRNA was fragmented using divalent cations at 94° C. for 2 min. The cleaved RNA fragments were copied into first-strand cDNA using reverse transcriptase and random primers. […] Surplus PCR primers were further removed by purification using AMPure XP beads (Beckman Coulter), and the final cDNA libraries were checked for quality and quantified using capillary electrophoresis. Sequencing was performed on the Illumina® Genome Hiseq4000 as single-end 50 base reads following Illumina's instructions. Reads were mapped onto the mm 10 assembly of Mus musculus genome using STAR v2.5.3a (72). Only uniquely aligned reads were kept for further analyses. Quantification of gene expression was performed using HTSeq-count v0.6.1p1 (73) and gene annotations from Ensembl releases 90 and 102 and “union” mode. Read counts were normalized across libraries with the method proposed by Ander et al. (74). […]

H1975 cells = test: Immunoblot quantification in H1975 cells; assay type: cell-based; details: 20 μM cisplatin, 10 nM KW6002, 24 hours
Experimental: (§1) FIG. 7. […] Caspase 3/-7 activity (n=3 independent experiments) (A) and the number of γH2AX nuclear foci (n=36-63 nuclei/group) (B) were determined. […] Results are expressed as the mean±SEM (n=3 independent experiments). (E) Tail moment was assessed by comet assay. A total of 50 cells per condition were analyzed. *** P<0.001; 1-way ANOVA followed by Tukey's post hoc test. […] (I) KW6002 increased yH2AX expression in tumors from mice of the LLC1 syngeneic model. Quantification of nuclear yH2AX expression.
Cells and tissues were homogenized using RIPA buffer (Sigma) supplemented with protease and phosphatase inhibitors (Pierce). 10 μg of total proteins were heated for 10 min at 70° C. and loaded on NuPAGE Novex gels (Thermo Fisher Scientific). After transfer of proteins to nitrocellulose membranes, membranes were blocked with 5% milk in TBS-tween followed by incubation with anti-cleaved caspase 3 (1/1000; #9661, Cell Signaling) or anti-cleaved PARP1 (1/1000; #5625, Cell Signaling) primary antibodies. Visualization of protein was achieved by using horseradish peroxidase-coupled secondary antibodies (1/2000; #7074, Cell signaling). Detection signal was performed by using the ECL select chemiluminescent kit (GE Healthcare) and Image Quant LAS 4000 (GE Healthcare). Data were analyzed with Image J. Membranes were probed with anti-GAPDH (glyceraldehyde-3-phosphate deshydrogenase) antibody as normalizer (G9545, Sigma).

[1] = Cumulative model of cisplatin toxicity; assay type: in vivo; details: FIG. 5
Text: FIG. 5. […] BUN quantification.

RPTEC/hTERT1 cells = test: Catalase activity; assay type: cell-based, human; details: cisplatin 50 μM, KW6002 25 μM, 48 hours
Experimental: Catalase activity was assessed using the Catalase Colorimetric Activity Kit (Thermo Fisher Scientific) according to the manufacturer's instructions.

LLC1 cells [2] = test: γH2AX immunostaining in LLC1 cells; assay type: cell-based, mouse; details: 2 μM cisplatin, 10 nM KW-6002, 6 hours, FIG. 7B
Experimental: as §1
Cells were fixed with 4% paraformaldehyde, permeabilized with DPBS/0.1% Triton X100 and incubated with γH2AX (Ser139) antibody (1/400; #9718, Cell Signaling Technology) and then, Alexa Fluor 488 secondary antibody (1/200; Life Technologies). Samples were examined on an immunofluorescence microscope (Leica™ DMI8) and γH2AX nuclear foci were counted.

LLC1 cells [3] = test: Caspase 3/7 activity in LLC1 cells; assay type: cell-based, mouse
Experimental: as §1
Cells were cultured in DMEM/F12 medium (Dulbecco's modified Eagle's medium and Ham's F12 medium, Thermo Fisher) supplemented with 1% penicillin/streptomycin, 5 pmol/L triiodo-L-thyronine, 10 ng/ml recombinant human epidermal growth factor, 3.5 μg/mL ascorbic acid, 5.0 μg/mL human transferrin, 5.0 μg/mL insulin, 25 ng/mL prostaglandin E1, 25 ng/ml hydrocortisone, 8.65 ng/mL sodium selenite, 0.1 mg/mL G418 and 1.2 g/L sodium bicarbonate (Sigma). Lewis lung carcinoma mouse LLC1 cells were cultured in DMEM glutamax (Thermo Fisher) containing 10% fetal calf serum and 1% penicillin/streptomycin. Cells were cultured at 37° C. in a humidified atmosphere of 5% CO2.
Apoptosis was assessed in RPTEC/hTERT and LLC1 cell lysates using the caspase-Glo 3/7 assay (Promega) according to manufacturer's recommendations.

CCn1c(=O)c2c(nc(/C=C/c3ccc(OC)c(OC)c3)n2C)n(CC)c1=O [KW-6002, 8-[(E)-2-(3,4-dimethoxyphenyl)vinyl]-1,3-diethyl-7-methyl-3,7-dihydro-1H-purine-2,6-dione]
histological lesions (histological score of renal injury) (C57BL6/J mice; A model, FIG. 2B): less severe histological lesions | mRNA levels of I16, change vs. cisplatin (C57BL6/J mice; A model, kidney): −73.8±5.3% | mRNA levels of Tnfα, change (C57BL6/J mice; A model, kidney): −36.0±4.3% | reduction of KIM-1 expression vs. cisplatin (C57BL6/J mice; A model, kidney mRNA): −95.2±0.7% | reduction of NGAL expression vs. cisplatin (C57BL6/J mice; A model, kidney mRNA): −55.5±5.9% | reduction of BUN vs. cisplatin (C57BL6/J mice; A model: cisplatin 10 mg/kg single i.p., KW-6002 3 mg/kg i.p. daily day-1 to day 2): −42.9±7.4% | selectively modulated genes that were downregulated (tumor cell transcriptome; among the 2497): 1016 genes | genes selectively modulated by cisplatin/KW-6002 co-treatment vs. vehicle (tumor cell transcriptome; out of 3923): 2497 genes | apoptosis: caspase 3 (H1975 cells; FIG. 7C): did not impede the antitumoral effect of cisplatin | apoptosis: PARP (H1975 cells; FIG. 7D): even potentiated the efficacy of cisplatin | cell cycle: cyclin D1 (H1975 cells; FIG. 7G): did not impede the antitumoral effect of cisplatin | cell cycle: PCNA (H1975 cells; FIG. 7H): even potentiated the efficacy of cisplatin | BUN quantification, cisplatin-induced kidney injury [1]: protects from cisplatin-induced kidney injury | cisplatin-induced decrease in catalase activity (RPTEC/hTERT1 cells): normalized | DNA damage: γH2AX nuclear foci (LLC1 cells [2]): increased number of H2AX+ cells | apoptosis: caspase 3/-7 activity (LLC1 cells [3]; 2 μM cisplatin, 10 Nm KW6002, 24 hours, FIG. 7A): even potentiated the efficacy of cisplatin | LLC1 sensitivity to cisplatin, including apoptosis and/or DNA damage (LLC1 cells [3]; in vitro, data not shown): likely increases LLC1 sensitivity to cisplatin
